According to publication PMC9442423, “Extracellular loop 2 of G protein–coupled olfactory receptors is critical for odorant recognition” (The Journal of Biological Chemistry, 2022):

What was measured:
mOR256-3 [1] = molecular target: T1, mOR256-3 (Mus musculus, UniProt Q0VEF0); experiment: CRE-luciferase cAMP reporter in Hana3A cells, dose-response fit; assay type: cell-based; settings: agonist, 4 h, 37 °C, 5% CO2
T1 construct: gene Olfr124; full-length receptor from Dr H. Matsunami, expressed in Hana3A cells; surface detected by antirhodopsin antibody
T1 sequence (Q0VEF0 1-315): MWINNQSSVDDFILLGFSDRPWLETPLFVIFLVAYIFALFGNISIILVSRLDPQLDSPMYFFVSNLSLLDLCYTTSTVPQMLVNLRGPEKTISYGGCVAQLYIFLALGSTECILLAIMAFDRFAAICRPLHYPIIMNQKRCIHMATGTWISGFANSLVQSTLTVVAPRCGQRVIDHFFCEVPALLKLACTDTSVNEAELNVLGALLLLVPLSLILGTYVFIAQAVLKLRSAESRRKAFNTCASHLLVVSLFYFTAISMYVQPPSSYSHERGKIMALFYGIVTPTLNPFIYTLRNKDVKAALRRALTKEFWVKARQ

mOR256-3 [2] = molecular target: T1, mOR256-3; experiment: CRE-luciferase cAMP reporter in Hana3A cells, inhibition of odorant response; assay type: cell-based; settings: antagonist against R-carvone, coumarin and geraniol

Compound	EC50 (mOR256-3 [1])	also measured
CCCCCCCC=O [octanal]	Ten odorants activated mOR256-3 in a dose-dependent manner	
CC(C)=CCCC(C)=CC=O [citral]		EC50 (mOR256-3 [1]; E/Z composition of citral not stated): Ten odorants activated mOR256-3 in a dose-dependent manner
CCCCCCCCO [1-octanol]	Ten odorants activated mOR256-3 in a dose-dependent manner	
CC(C)=CCC/C(C)=C/CO [geraniol]	Ten odorants activated mOR256-3 in a dose-dependent manner	
C=CCOC(=O)Cc1ccccc1 [allyl phenylacetate]	Ten odorants activated mOR256-3 in a dose-dependent manner	
C=C(C)[C@@H]1CC=C(C)C(=O)C1 [R-carvone]	Ten odorants activated mOR256-3 in a dose-dependent manner	
O=c1ccc2ccccc2o1 [coumarin]	Ten odorants activated mOR256-3 in a dose-dependent manner	
O=Cc1ccccc1 [benzaldehyde]		CRE-luciferase cAMP reporter in Hana3A cells, inhibition of odorant response (mOR256-3 [2]): Benzaldehyde antagonized R-carvone, coumarin, and geraniol
CCCCCC(C)=O [2-heptanone]	Ten odorants activated mOR256-3 in a dose-dependent manner	
CC(=O)OCc1ccccc1 [benzyl acetate]	Ten odorants activated mOR256-3 in a dose-dependent manner	
CCCCCCCC(=O)O [octanoic acid]	Ten odorants activated mOR256-3 in a dose-dependent manner	
